Among the data in patent US8999355B2, “Non-rinse off cosmetic composition and a cosmetic product comprising said composition” (Natura Cosmeticos S.A., priority 2005, dated 2015) are structure formed values, retold here.

The data set in a line: In vitro tests of lamellar structure formation. It counts as physicochemical. The note with it: RMT associated to palmitic acid.

Consider “ricinoleyl monomaleate triglyceride [RMT]”, for which the structure formed entry was “form a lamellar structure very similar to the lamellar gel structure that is naturally present in healthy skins”.
